Common to all, as to format: cell-based
Test [1] concerns Jurkat cells. As to the kind of experiment: Flow cytometry of live and heat-treated Jurkat cells stained in PBS or complete media. A general note: In flow cytometry, cells or beads pass a laser one at a time.
Test [2] has as its system Jurkat cells. Briefly: Flow cytometry of 50% live/50% dead Jurkat cell mixtures fixed with 4% formaldehyde. The conditions noted are these: 25 μM dye, PBS or complete media, substantial majority of live cells.
For test [3], the system named is Jurkat cells. As to the kind of experiment: Flow cytometry of 50% live/50% dead Jurkat cell mixtures, fixed and permeabilized.
A further test concerns untreated Jurkat cells. Briefly: Flow cytometry of untreated Jurkat cells in PBS or complete media. The conditions noted are these: 25 μM, five minutes, PBS and complete media. Here is the method:
Populations of untreated Jurkat cells in either PBS or complete media were incubated with 25 μM Compound 2 for five minutes and analyzed by flow cytometry. Results are shown in FIGS. 4A-4B (PBS and complete media, respectively).

For test [4], the system named is Jurkat cells.

Take `N=c1ccc2c(-c3ccc(C(=O)NCCCCCNC(=O)CCCc4ccc(N(CCCl)CCCl)cc4)cc3C(=O)O)c3ccc(N)c(S(=O)(=O)O)c3oc-2c1S(=O)(=O)O` [Compound 2]: in the test on Jurkat cells [1] (25 μM dye, PBS versus complete media), the “variation in intensity of staining due to the presence of complete media” value is “little to no variation in intensity of staining”. Also, the “separation of live and dead cells in histograms” value in the test on Jurkat cells [1] (25 μM dye, stained in PBS and in complete media (RPMI+10FBS), 488 nm excitation, 530/30 nm emission) was “clear separation of live and dead cells”. Further, in the test on Jurkat cells [1] (live and dead cell peaks, media and PBS), the “histogram peaks for staining in media versus in PBS (FIGS. 1B, 1C)” value is on record as “overlap”. In addition, the “separation of live cells from dead cells” value in the test on Jurkat cells [2] is on record as “two logs of separation”. Besides, the “separation of live cells from dead cells” value in the test with Jurkat cells [3] (fixed and permeabilized, 25 μM dye, PBS or complete media, substantial majority of live cells) is “two logs of separation”. In addition, the “histogram peaks for staining in media versus in PBS (FIGS. 3A, 3B)” value in the test on Jurkat cells [3] (fixed, permeabilized cells) is reported as “mostly or partially overlap”. The “strongly labeled peaks corresponding to dead cells” value with untreated Jurkat cells is given as 7-14 % of total cells. Also, in the test on Jurkat cells [4], the “difference of unstained control from live cell peaks, peak to peak” value was 1-1.5 logs; the “separation of dead cell peaks from the live cell peaks” value is on record as “good separation”; the “separation of dead cells from live cells, peak to peak” value is recorded as “over 2 logs”; the “staining of live cells (versus unstained control)” value is listed as “negligible”.

The record behind these values is US11768156B2, “Methods and compositions for assessing cell viability” (Life Technologies Corporation, priority 2017, dated 2023).
